Consider one molecule from US20050081267A1, “Novel genes for conditional cell ablation” (Bayer Bioscience N.V., priority 2001, published 2005).

Each structure is given as a SMILES string.

The subject of assay [1] is leaves of the transgenic plants (Tobacco, Nicotiana tabacum) expressing ArgJ coding sequence under 35S promoter. Briefly: Drop experiment on leaves of 35S-ArgJ transgenic tobacco plants. The format is in vivo. As to conditions: 5 μl drops; dose of 4 mg/ml or 1 mg/ml; apparent 4 to 5 days after treatment; seven independent p35SARG transformants. The source says: The ArgJ coding sequence was recloned into the binary vector pROK1 under control of the Cauliflower Mosaic Virus 35S promoter sequence. The resulting plasmid p35SARG comprising the 35S promoter, ArgJ coding sequence and 35S terminator was transformed in Agrobacterium tumefaciens (strain ATHV) using standard methods. Tobacco (Nicotiana tabacum) leaf disks were transformed with the recombinant Agrobacteria according to the method of Horsch et al. (1985, Science 227:1229-1231) and selected on kanamycin medium. Seven independent transformants were regenerated. In a drop experiment, the leaves of the transgenic plants (and a number of control plants) were treated with 5 μl each of the following concentrations of N-acetyl- D, L-PPT: 4 mg/ml (=15 mM), 1 mg/ml (=3.75 mM), 0.4 mg/ml (=1.5 mM), 0.1 mg/ml (=0.38 mM). The treatment sites were examined for lightening or necrosis formation.

Assay [2] has as its system flower buds of the transgenic lines (Tobacco, Nicotiana tabacum) expressing ArgJ deacetylase under TA29 promoter. Briefly: Flower bud treatment to induce male-sterile flowers in TA29-ArgJ transgenic tobacco. As to conditions: 10 μl of 5 mg/ml solution (0.1% Genapol). The format is in vivo. The source says:
The ArgJ coding sequence was recloned into the binary vector pROK1 under control of the TA29 promoter of tobacco. The resulting plasmid pTA29ARG comprising the TA29 promoter, ArgJ coding sequence and 35S terminator was transformed in Agrobacterium tumefaciens (strain ATHV) using standard methods. Tobacco (Nicotiana tabacurn) leaf disks were transformed with the recombinant Agrobacteria according to the method of Horsch et al. (1985, above) and selected on kanamycin medium.
To investigate tapetum-specific expression of the ArgJ deacetylase, flower buds of the transgenic lines were treated with N-acetyl-PPT to induce male-sterile flowers.
In each case only one side of the inflorescence ([…] of the developing flower bud) was treated with N-acetyl PPT, in order to eliminate possible contamination with natural male-sterility phenomena. Treatment was carried out on flower buds of 2 to 4 mm large. Transgenic and control plants were treated with 10 μl of 5 mg/ml N-acetyl PPT solution (0.1% Genapol as wetting agent). After the blooming of the buds (about 9-11 days after conclusion of the treatment) the plants were investigated for the occurrence of male-sterile flowers.

In the case of `CC(=O)NC(CCP(C)(=O)O)C(=O)O` [N-acetyl- D, L-PPT, N-acetyl-phosphinothricin], the “lightening or necrosis formation at treatment sites (leaf damage)” value in assay [1] is recorded as “Four plants showed clearly visible leaf damage”. Further, in assay [2] (control and wild-type plants), the “occurrence of male-sterile flowers, control or wild-type tobacco flowers” value was “no reaction was seen”. In addition, the “occurrence of male-sterile flowers from drop-treated flowerbuds, transgenic plants” value in assay [2] (flower buds 2 to 4 mm, examined about 9-11 days after treatment, pTA29ARG transgenic plants) is “In three out of seven transgenic plants, male-sterile flowers developed”.
